Laboratory results taken from patent publication US9296697B2, “Hetaryl-substituted guanidine compounds and use thereof as binding partners for 5-HT5-receptors” (Abbott Laboratories, priority 2005, dated 2016).

Target: T1, h5-HT5A receptor (Homo sapiens, UniProt P47898)
T1 construct: expressed in transfected cells; membranes used
Assay: h5-HT5A [3H]5-CT binding assay
Conditions: affinity for 5-HT5A; membranes of HEK293 cells expressing the h5-HT5A receptor gene, 2.5 nM [3H]5-CT
Method: h5-HT5A [^3H]5-CT Binding Assay
Membranes of HEK293 cells which permanently express the h5-HT5A receptor gene were incubated in 100 mM tris-HCl buffer (pH 7.7) containing 1 mM EDTA, in the presence of 2.5 nM [^3H]5-CT (total volume 600 μL). The total binding is defined as the binding that is observed when the membranes are incubated in the presence of only the radioligand. The inhibition induced by the compound is determined by incubation of cell membranes in the presence of the radioligand and various concentrations of the compound of interest. Nonspecific binding is defined as the [^3H]5-CT binding obtained by incubation of the membranes, the same as for the total binding, but in the presence of 10 μM methiothepine. Following incubation for 75 min at 30° C., the membrane suspension was filtered through a GF/B-Filter coated with 0.03% PEI, using a Skatron® harvesting system. The residual radioactivity in the filter was quantified by liquid scintillation counting.
Various concentrations of the test substances were used in both assays, and the Ki or IC50 values were determined.

T1 sequence (P47898 whole entry): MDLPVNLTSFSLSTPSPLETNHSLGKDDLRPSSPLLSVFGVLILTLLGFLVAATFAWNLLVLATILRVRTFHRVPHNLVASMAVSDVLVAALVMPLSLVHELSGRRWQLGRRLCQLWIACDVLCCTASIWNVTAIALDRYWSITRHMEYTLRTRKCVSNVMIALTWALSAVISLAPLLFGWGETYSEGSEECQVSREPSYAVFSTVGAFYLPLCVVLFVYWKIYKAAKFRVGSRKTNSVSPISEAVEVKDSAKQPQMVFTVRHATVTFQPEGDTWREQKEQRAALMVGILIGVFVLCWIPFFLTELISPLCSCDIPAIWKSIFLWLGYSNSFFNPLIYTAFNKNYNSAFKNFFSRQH

How did the Ki turn out when `COc1cccc(OC)c1CNC(=N)Nc1cc(-c2ccc(F)cc2)ccn1` [Example 57, N-(2,6-Dimethoxybenzyl)-N′-[4-(4-fluorophenyl)pyridin-2-yl]guanidine acetate] was run?
The Ki was less than 100 nM.

Which Ki does the source give for `COc1ccccc1CNC(=N)Nc1cnc2ccccc2c1` [Example 16, N-(2-Methoxybenzyl)-N′-quinolin-3-yl-guanidine acetate] here?
Its Ki is less than 10000 nM.

`Cc1ccc(NC(=N)NCc2ccccc2OC(F)(F)F)nc1` [Example 24, N-(5-Methylpyridin-2-yl)-N′-[2-(trifluoromethoxy)benzyl]guanidine] was tested. Which Ki did it give?
The Ki was less than 100 nM.

Which Ki does the source give for `COc1cccc(OC)c1CNC(=N)Nc1ncc(C(F)(F)F)cc1Cl` [Example 11, N-[3-Chloro-5-(trifluoromethyl)pyridin-2-yl]-N′-(2,6-dimethoxybenzyl)guanidine acetate] here?
The Ki was less than 10000 nM.

For `COc1cccc(OC)c1CNC(=N)Nc1ccc(C)cn1` [Example 7, N-(2,6-dimethoxybenzyl)-N′-(5-methylpyridin-2-yl)guanidine], which Ki is on record?
The Ki was less than 100 nM.

For `COc1cccc(OC)c1CNC(=N)Nc1ncccc1Br` [Example 46, N-(3-Bromopyridin-2-yl)-N′-(2,6-dimethoxybenzyl)guanidine acetate], which Ki is on record?
The Ki was less than 100 nM.

For `N#Cc1cccc(NC(=N)NCc2c(Cl)cccc2Oc2ccccc2)n1` [Example 82, N-(2-Chloro-6-phenoxybenzyl)-N′-(6-cyanopyridin-2-yl)guanidine acetate], which Ki is on record?
Its Ki is less than 100 nM.

`COc1cccc(OC)c1CNC(=N)Nc1cccc(C#N)n1` [Example 55, N-(6-Cyanopyridin-2-yl)-N′-(2,6-dimethoxybenzyl)guanidine acetate] was tested. Which Ki did it give?
Its Ki is less than 100 nM.

For `COc1cccc(OC)c1CNC(=N)Nc1ccc(-c2ccc(F)cc2)cn1` [Example 84, N-(2,6-Dimethoxybenzyl)-N′-[5-(4-fluorophenyl)pyridin-2-yl]guanidine acetate], which Ki is on record?
Its Ki is less than 100 nM.

`COc1cccc(OC)c1CNC(=N)Nc1cc(C#N)ccn1` [Example 64, N-(4-Cyanopyridin-2-yl)-N′-(2,6-dimethoxybenzyl)guanidine acetate] was tested. Which Ki did it give?
Its Ki is less than 100 nM.

`COc1cccc(OC)c1CNC(=N)Nc1ncccc1C` [Example 13, N-(2,6-Dimethoxybenzyl)-N′-(3-methylpyridin-2-yl)guanidine acetate] was tested. Which Ki did it give?
Its Ki is less than 100 nM.

How did the Ki turn out when `COc1cccc(Cl)c1CNC(=N)Nc1ccc(C#N)cn1` [Example 95, N-(2-Chloro-6-methoxybenzyl)-N′-(5-cyanopyridin-2-yl)guanidine acetate] was run?
The Ki was less than 100 nM.

With `COc1cccc(OC)c1CNC(=N)Nc1ccc(Cc2ccccc2)cn1` [Example 68, N-(5-Benzylpyridin-2-yl)-N′-(2,6-dimethoxybenzyl)guanidine acetate] as the compound, how does the Ki read?
The Ki was less than 100 nM.

How did the Ki turn out when `COc1cccc(F)c1CNC(=N)Nc1cccc(C#N)n1` [Example 77, N-(6-Cyanopyridin-2-yl)-N′-(2-fluoro-6-methoxybenzyl)guanidine acetate] was run?
The Ki was less than 100 nM.

How did the Ki turn out when `COc1ccccc1CNC(=N)Nc1cccc(Br)n1` [Example 42, N-(6-Bromopyridin-2-yl)-N′-(2-methoxybenzyl)guanidine] was run?
Its Ki is less than 100 nM.

With `COc1cccc(C)c1CNC(=N)Nc1ncccc1C` [Example 33, N-(2-Methoxy-6-methylbenzyl)-N′-(3-methylpyridin-2-yl)guanidine] as the compound, how does the Ki read?
Its Ki is less than 100 nM.

Which Ki does the source give for `CC(C)Oc1ccccc1CNC(=N)Nc1cccc(C#N)n1` [Example 80, N-(6-Cyanopyridin-2-yl)-N′-(2-isopropoxybenzyl)guanidine acetate] here?
Its Ki is less than 100 nM.

`COc1cccc(C)c1CNC(=N)Nc1ccc(C)cn1` [Example 19, N-(2-Methoxy-6-methylbenzyl)-N′-(5-methylpyridin-2-yl)guanidine] was tested. Which Ki did it give?
The Ki was less than 100 nM.

With `COc1cccc(Cl)c1CNC(=N)Nc1ccc(I)cn1` [Example 91, N-(2-Chloro-6-methoxybenzyl)-N′-(5-iodopyridin-2-yl)guanidine acetate] as the compound, how does the Ki read?
The Ki was less than 100 nM.

How did the Ki turn out when `COc1cccc(Cl)c1CNC(=N)Nc1ncccc1C` [Example 31, N-(2-Chloro-6-methoxybenzyl)-N′-(3-methylpyridin-2-yl)guanidine] was run?
Its Ki is less than 100 nM.

With `COc1ccccc1CNC(=N)Nc1cc2ccccc2cn1` [Example 38, N-Isoquinolin-3-yl-N′-(2-methoxybenzyl)guanidine] as the compound, how does the Ki read?
The Ki was less than 100 nM.

Which Ki does the source give for `COc1cccc(OC)c1CNC(=N)Nc1ncccc1-c1ccccc1` [Example 60, N-(2,6-Dimethoxybenzyl)-N′-(3-phenylpyridin-2-yl)guanidine acetate] here?
The Ki was less than 300 nM.

`COc1ccccc1CNC(=N)Nc1ccc(-c2ccccc2)cn1` [Example 86, N-(2-Methoxybenzyl)-N′-(5-phenylpyridin-2-yl)guanidine] was tested. Which Ki did it give?
The Ki was less than 100 nM.

With `COc1ccccc1CN=C(N)Nc1ccc(I)cn1` [Example 4, N-(5-Iodopyridin-2-yl)-N″-(2-methoxybenzyl)guanidine] as the compound, how does the Ki read?
The Ki was less than 100 nM.

How did the Ki turn out when `CC(C)Oc1ccccc1CNC(=N)Nc1cccc(Br)n1` [Example 74, N-(6-Bromopyridin-2-yl)-N′-(2-isopropoxybenzyl)guanidine] was run?
The Ki was less than 100 nM.

For `COc1ccccc1CNC(=N)Nc1ccc(-c2ccc(C(F)(F)F)cc2)cn1` [Example 89, N-(2-Methoxybenzyl)-N′-{5-[4-(trifluoromethyl)phenyl]pyridin-2-yl}guanidine acetate], which Ki is on record?
The Ki was less than 300 nM.

How did the Ki turn out when `COc1ccccc1CNC(=N)Nc1ccc(Cc2ccccc2)cn1` [Example 67, N-(5-Benzylpyridin-2-yl)-N′-(2-methoxybenzyl)guanidine acetate] was run?
The Ki was less than 100 nM.

For `COc1ccccc1CNC(=N)Nc1ncccc1Br` [Example 47, N-(3-Bromopyridin-2-yl)-N′-(2-methoxybenzyl)guanidine acetate], which Ki is on record?
The Ki was less than 10000 nM.

Which Ki does the source give for `COc1ccccc1CNC(=N)Nc1nccc(-c2cccs2)n1` [Example 14, N-(2-Methoxybenzyl)-N′-(4-(2-thienyl)pyrimidin-2-yl]guanidine acetate] here?
Its Ki is less than 10000 nM.

With `Cc1ccc(NC(=N)NCc2c(Cl)cccc2Oc2ccccc2)nc1` [Example 27, N-(2-Chloro-6-phenoxybenzyl)-N′-(5-methylpyridin-2-yl)guanidine acetate] as the compound, how does the Ki read?
The Ki was less than 100 nM.

With `COc1ccccc1CNC(=N)Nc1ncccn1` [Example 36, N-(2-Methoxybenzyl)-N′-pyrimidin-2-yl-guanidine acetate] as the compound, how does the Ki read?
Its Ki is less than 10000 nM.

With `COc1cccc(C)c1CNC(=N)Nc1ccc(I)cn1` [Example 93, N-(5-Iodopyridin-2-yl)-N′-(2-methoxy-6-methylbenzyl)guanidine acetate] as the compound, how does the Ki read?
The Ki was less than 100 nM.

For `COc1cccc(C)c1CNC(=N)Nc1ccc(C#N)cn1` [Example 97, N-(5-Cyanopyridin-2-yl)-N′-(2-methoxy-6-methylbenzyl)guanidine acetate], which Ki is on record?
Its Ki is less than 100 nM.

For `COc1cccc(OC)c1CNC(=N)Nc1ccc(I)cn1` [Example 3, N-(2,6-dimethoxybenzyl)-N′-(5-iodopyridin-2-yl)guanidine], which Ki is on record?
Its Ki is less than 100 nM.

For `COc1ccccc1CNC(=N)Nc1cccnc1` [Example 34, N-(2-Methoxybenzyl)-N′-pyridin-3-yl-guanidine acetate], which Ki is on record?
Its Ki is less than 10000 nM.

How did the Ki turn out when `CCOc1ccccc1CNC(=N)Nc1ccc(C)cn1` [Example 22, N-(2-Ethoxybenzyl)-N′-(5-methylpyridin-2-yl)guanidine acetate] was run?
The Ki was less than 100 nM.

How did the Ki turn out when `Cc1ccc(NC(=N)NCc2ccccc2OC(C)C)nc1` [Example 23, N-(2-Isopropoxybenzyl)-N′-(5-methylpyridin-2-yl)guanidine acetate] was run?
The Ki was less than 100 nM.

Which Ki does the source give for `Cc1ccc(NC(=N)NCc2ccccc2Cl)nc1` [Example 21, N-(2-Chlorobenzyl)-N′-(5-methylpyridin-2-yl)guanidine] here?
The Ki was less than 300 nM.

`COc1cccc(OC)c1CNC(=N)Nc1ccc2ccccc2n1` [Example 41, N-(2,6-Dimethoxybenzyl)-N′-quinolin-2-yl-guanidine acetate] was tested. Which Ki did it give?
Its Ki is less than 100 nM.

Which Ki does the source give for `COc1ccccc1CNC(=N)Nc1ccc(C#N)cn1` [Example 90, N-(5-Cyanopyridin-2-yl)-N′-(2-methoxybenzyl)guanidine] here?
The Ki was less than 100 nM.

With `COc1ccccc1CNC(=N)Nc1cc(-c2ccccc2)ccn1` [Example 58, N-(2-Methoxybenzyl)-N′-(4-phenylpyridin-2-yl)guanidine acetate] as the compound, how does the Ki read?
Its Ki is less than 100 nM.

With `COc1ccccc1CNC(=N)Nc1ncccc1-c1ccccc1` [Example 62, N-(2-Methoxybenzyl)-N′-(3-phenylpyridin-2-yl)guanidine acetate] as the compound, how does the Ki read?
Its Ki is less than 100 nM.

How did the Ki turn out when `Cc1ccc(NC(=N)NCc2ccccc2OC(F)F)nc1` [Example 26, N-[2-(Difluoromethoxy)benzyl]-N′-(5-methylpyridin-2-yl)guanidine] was run?
The Ki was less than 100 nM.

For `N=C(NCc1ccccc1Cl)Nc1ccc(I)cn1` [Example 94, N-(2-Chlorobenzyl)-N′-(5-iodopyridin-2-yl)guanidine acetate], which Ki is on record?
The Ki was less than 300 nM.

Which Ki does the source give for `COc1ccccc1CNC(=N)Nc1ccc(-c2ccc(F)cc2)cn1` [Example 88, N-[5-(4-Fluorophenyl)pyridin-2-yl]-N′-(2-methoxybenzyl)guanidine acetate] here?
The Ki was less than 100 nM.

How did the Ki turn out when `COc1ccccc1CNC(=N)Nc1cccc(-c2ccc(OC(F)(F)F)cc2)n1` [Example 48, N-(2-Methoxybenzyl)-N′-{6-[4-(trifluoromethoxy)phenyl]pyridin-2-yl}guanidine] was run?
Its Ki is less than 10000 nM.

How did the Ki turn out when `N#Cc1ccc(NC(=N)NCc2ccccc2Cl)nc1` [Example 98, N-(2-Chlorobenzyl)-N′-(5-cyanopyridin-2-yl)guanidine acetate] was run?
Its Ki is less than 300 nM.

How did the Ki turn out when `COc1cccc(F)c1CNC(=N)Nc1ccc(C)cn1` [Example 20, N-(2-Fluoro-6-methoxybenzyl)-N′-(5-methylpyridin-2-yl)guanidine acetate] was run?
The Ki was less than 100 nM.
